Results: ChEMBL document CHEMBL1131695, “Design and synthesis of 6-(6-D-ribitylamino-2,4-dihydroxypyrimidin-5-yl)-1-hexyl phosphonic acid, a potent inhibitor of lumazine synthase” (Bioorg Med Chem Lett, 1999)

Assay: Inhibitory activity against lumazine synthase beta-60 capsids from Bacillus subtilis

Structure (SMILES) | Ki
O=P(O)(O)CCCCCCc1c(O)nc(O)nc1NC[C@H](O)[C@H](O)[C@H](O)CO | 109 µM
O=C(Nc1c(O)nc(O)nc1NC[C@H](O)[C@H](O)[C@H](O)CO)c1ccc(S(=O)(=O)F)cc1 | 200 µM
O=C(Nc1c(O)nc(O)nc1NC[C@H](O)[C@H](O)[C@H](O)CO)c1ccc(S(=O)(=O)O)cc1 | 360 µM
O=c1[nH]c(=O)c2nnn(C[C@H](O)[C@H](O)[C@H](O)CO)c2[nH]1 | 330 µM
O=C(O)CCCC(=O)Nc1c(O)nc(O)nc1NC[C@H](O)[C@H](O)[C@H](O)CO | 430 µM
O=c1[nH]c(=O)c2ncn(C[C@H](O)[C@H](O)[C@H](O)CO)c2[nH]1 | 470 µM
